Assay results reported in patent US20110039721A1, “METHOD FOR PREDICTION ABOUT CARCINOGENICITY OF SUBSTANCE IN RODENT” (Chemicals Evaluation and Research Institute, priority 2007, published 2011).
Read-outs that look alike come from different tables or passages of the source.

Legend:
[1] = cited from earlier work
[2] = test system: mRNA expressed from the genes (A) to (D) in rat liver; assay: Behavior of genes (mRNA expression level, oligo-DNA microarray) in rat liver after 28-day oral administration; format: in vivo
Method in brief: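 Male F344 SPF rats, 5 weeks old, four per group, received carcinogens, non-carcinogens or solvent vehicle by oral gavage once daily for 28 days. Liver total RNA was then extracted. Changes of ≥1.5-fold or ≤1/1.5 versus vehicle control, in a consistent direction across carcinogens, counted as significant.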

[3] = test system: rodent; conditions: cited from earlier work
[4] = test system: liver; conditions: cited from earlier work
[5] = gene group (A), Unigene No. Rn.167075
[6] = gene group (C), Unigene No. Rn.120914

## Cl.Cl.Nc1ccc(N)cc1 [TS059, p-Phenylenediamine 2HCl]
[1]; classification of the substance (M+/M−)
  Mutagenicity by Ames test: M+
[2]; gene group (A), Unigene No. Rn.144554
  Behavior of gene caused by administration of chemical substance, Gene No. 4846: −
[2]; [5]
  Behavior of gene caused by administration of chemical substance, Gene No. 2026: −
  Behavior of gene caused by administration of chemical substance, Gene No. 4218: −
[2]; gene group (A), Unigene No. Rn.5834
  Behavior of gene caused by administration of chemical substance, Gene No. 6182: −
[2]; gene group (A), Unigene No. Rn.9836
  Behavior of gene caused by administration of chemical substance, Gene No. 5600: −
[2]; gene group (B), Unigene No. Rn.1430
  Behavior of gene caused by administration of chemical substance, Gene No. 1494: −
[2]; gene group (B), Unigene No. Rn.19329
  Behavior of gene caused by administration of chemical substance, Gene No. 2045: −
[2]; gene group (B), Unigene No. Rn.21240
  Behavior of gene caused by administration of chemical substance, Gene No. 2203: −
[2]; gene group (C), Unigene No. Rn.106184
  Behavior of gene caused by administration of chemical substance, Gene No. 533: −
[2]; gene group (C), Unigene No. Rn.108075
  Behavior of gene caused by administration of chemical substance, Gene No. 725: −
[2]; gene group (C), Unigene No. Rn.11766
  Behavior of gene caused by administration of chemical substance, Gene No. 1163: −
[2]; gene group (C), Unigene No. Rn.118529
  Behavior of gene caused by administration of chemical substance, Gene No. 4973: +
[2]; gene group (C), Unigene No. Rn.119024
  Behavior of gene caused by administration of chemical substance, Gene No. 4095: +
[2]; [6]
  Behavior of gene caused by administration of chemical substance, Gene No. 1334: +
  Behavior of gene caused by administration of chemical substance, Gene No. 6620: +
[2]; gene group (C), Unigene No. Rn.123063
  Behavior of gene caused by administration of chemical substance, Gene No. 6303: −
[2]; gene group (C), Unigene No. Rn.143213
  Behavior of gene caused by administration of chemical substance, Gene No. 5878: −
[2]; gene group (C), Unigene No. Rn.144946
  Behavior of gene caused by administration of chemical substance, Gene No. 1131: −
[2]; gene group (C), Unigene No. Rn.14744
  Behavior of gene caused by administration of chemical substance, Gene No. 1562: +
[2]; gene group (C), Unigene No. Rn.1647
  Behavior of gene caused by administration of chemical substance, Gene No. 1741: +
[2]; gene group (C), Unigene No. Rn.164817
  Behavior of gene caused by administration of chemical substance, Gene No. 893: +
[2]; gene group (C), Unigene No. Rn.167685
  Behavior of gene caused by administration of chemical substance, Gene No. 6026: −
[2]; gene group (C), Unigene No. Rn.185941
  Behavior of gene caused by administration of chemical substance, Gene No. 154: +
[2]; gene group (C), Unigene No. Rn.18728
  Behavior of gene caused by administration of chemical substance, Gene No. 1993: +
[2]; gene group (C), Unigene No. Rn.201760
  Behavior of gene caused by administration of chemical substance, Gene No. 813: −
[2]; gene group (C), Unigene No. Rn.23969
  Behavior of gene caused by administration of chemical substance, Gene No. 2494: −
[2]; gene group (C), Unigene No. Rn.24561
  Behavior of gene caused by administration of chemical substance, Gene No. 2546: +
[2]; gene group (C), Unigene No. Rn.43232
  Behavior of gene caused by administration of chemical substance, Gene No. 3776: +
[2]; gene group (C), Unigene No. Rn.4620
  Behavior of gene caused by administration of chemical substance, Gene No. 3929: +
[2]; gene group (C), Unigene No. Rn.9757
  Behavior of gene caused by administration of chemical substance, Gene No. 1119: +
[2]; gene group (C), Unigene No. Rn.9779
  Behavior of gene caused by administration of chemical substance, Gene No. 6742: −
[2]; gene group (C), Unigene No. Rn.9862
  Behavior of gene caused by administration of chemical substance, Gene No. 5634: +
[2]; gene group (D), Unigene No. Rn.9939
  Behavior of gene caused by administration of chemical substance, Gene No. 5726: +
[3]; classification of the substance (C+/C−)
  Carcinogenicity: C−
[4]; classification of the substance (Cr+/Cr−)
  Liver carcinogenicity: Cr−

## CC(=O)Nc1cccc2c1-c1ccccc1C2 [TS061, 4-Acetylaminofluorene]
[1]; classification M+/M−
  Mutagenicity by Ames test: M+
[2]; Gene No. 154, Rn.185941, group (C)
  Behavior of gene caused by administration of chemical substance: −
[2]; Gene No. 533, Rn.106184, group (C)
  Behavior of gene caused by administration of chemical substance: −
[2]; Gene No. 725, Rn.108075, group (C)
  Behavior of gene caused by administration of chemical substance: −
[2]; Gene No. 813, Rn.201760, group (C)
  Behavior of gene caused by administration of chemical substance: −
[2]; Gene No. 893, Rn.164817, group (C)
  Behavior of gene caused by administration of chemical substance: −
[2]; Gene No. 1119, Rn.9757, group (C)
  Behavior of gene caused by administration of chemical substance: −
[2]; Gene No. 1131, Rn.144946, group (C)
  Behavior of gene caused by administration of chemical substance: −
[2]; Gene No. 1163, Rn.11766, group (C)
  Behavior of gene caused by administration of chemical substance: +
[2]; Gene No. 1334, Rn.120914, group (C)
  Behavior of gene caused by administration of chemical substance: −
[2]; Gene No. 1494, Rn.1430, group (B)
  Behavior of gene caused by administration of chemical substance: −
[2]; Gene No. 1562, Rn.14744, group (C)
  Behavior of gene caused by administration of chemical substance: −
[2]; Gene No. 1741, Rn.1647, group (C)
  Behavior of gene caused by administration of chemical substance: −
[2]; Gene No. 1993, Rn.18728, group (C)
  Behavior of gene caused by administration of chemical substance: −
[2]; Gene No. 2026, Rn.167075, group (A)
  Behavior of gene caused by administration of chemical substance: +
[2]; Gene No. 2045, Rn.19329, group (B)
  Behavior of gene caused by administration of chemical substance: −
[2]; Gene No. 2203, Rn.21240, group (B)
  Behavior of gene caused by administration of chemical substance: −
[2]; Gene No. 2494, Rn.23969, group (C)
  Behavior of gene caused by administration of chemical substance: −
[2]; Gene No. 2546, Rn.24561, group (C)
  Behavior of gene caused by administration of chemical substance: −
[2]; Gene No. 3776, Rn.43232, group (C)
  Behavior of gene caused by administration of chemical substance: −
[2]; Gene No. 3929, Rn.4620, group (C)
  Behavior of gene caused by administration of chemical substance: −
[2]; Gene No. 4095, Rn.119024, group (C)
  Behavior of gene caused by administration of chemical substance: −
[2]; Gene No. 4218, Rn.167075, group (A)
  Behavior of gene caused by administration of chemical substance: −
[2]; Gene No. 4846, Rn.144554, group (A)
  Behavior of gene caused by administration of chemical substance: +
[2]; Gene No. 4973, Rn.118529, group (C)
  Behavior of gene caused by administration of chemical substance: −
[2]; Gene No. 5600, Rn.9836, group (A)
  Behavior of gene caused by administration of chemical substance: −
[2]; Gene No. 5634, Rn.9862, group (C)
  Behavior of gene caused by administration of chemical substance: −
[2]; Gene No. 5726, Rn.9939, group (D)
  Behavior of gene caused by administration of chemical substance: −
[2]; Gene No. 5878, Rn.143213, group (C)
  Behavior of gene caused by administration of chemical substance: −
[2]; Gene No. 6026, Rn.167685, group (C)
  Behavior of gene caused by administration of chemical substance: −
[2]; Gene No. 6182, Rn.5834, group (A)
  Behavior of gene caused by administration of chemical substance: +
[2]; Gene No. 6303, Rn.123063, group (C)
  Behavior of gene caused by administration of chemical substance: −
[2]; Gene No. 6620, Rn.120914, group (C)
  Behavior of gene caused by administration of chemical substance: −
[2]; Gene No. 6742, Rn.9779, group (C)
  Behavior of gene caused by administration of chemical substance: −
[3]; classification C+/C−
  Carcinogenicity: C−
[4]; classification Cr+/Cr−
  Liver carcinogenicity: Cr−
